Ki and inhibition data for twelve compounds are collected here from ChEMBL document CHEMBL1127997, “Synthesis of new thiazinoindole derivatives and their evaluation as inhibitors of human leukocyte elastase and other related serine proteases” (Bioorg Med Chem Lett, 1994).

Structures are written as SMILES. Where only a bound is given, the exact number is not on record here.

In general, Ki refers to a measure of affinity in units of concentration, obtained from inhibition or displacement. Lower therefore signals higher affinity. One may read the inhibition as the share of the control response that was lost under treatment. High values mean a strong effect, low ones a weak effect.

Assay [1] concerns the target T1, Neutrophil elastase (Homo sapiens, UniProt P08246).
T1 sequence (P08246 whole entry): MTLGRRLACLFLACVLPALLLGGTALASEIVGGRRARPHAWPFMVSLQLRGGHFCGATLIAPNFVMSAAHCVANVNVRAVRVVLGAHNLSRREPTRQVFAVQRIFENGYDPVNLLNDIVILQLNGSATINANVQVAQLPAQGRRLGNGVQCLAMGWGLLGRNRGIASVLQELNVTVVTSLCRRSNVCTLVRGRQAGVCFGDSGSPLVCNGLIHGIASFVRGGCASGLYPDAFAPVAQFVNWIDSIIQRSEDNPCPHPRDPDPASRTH
Put plainly: Compound was tested for inhibition of human leukocyte Elastase from human polymorphonuclear leukocytes; not inhibitory at the limit of solubility.

Assay [2] has as its target T1, Neutrophil elastase. Briefly: Compound was tested for inhibition of human leukocyte Elastase at 15 uM concentration from human polymorphonuclear leukocytes.
In assay [3] the target is T2, Cathepsin G (Homo sapiens) (UniProt P08311).
T2 sequence (whole entry): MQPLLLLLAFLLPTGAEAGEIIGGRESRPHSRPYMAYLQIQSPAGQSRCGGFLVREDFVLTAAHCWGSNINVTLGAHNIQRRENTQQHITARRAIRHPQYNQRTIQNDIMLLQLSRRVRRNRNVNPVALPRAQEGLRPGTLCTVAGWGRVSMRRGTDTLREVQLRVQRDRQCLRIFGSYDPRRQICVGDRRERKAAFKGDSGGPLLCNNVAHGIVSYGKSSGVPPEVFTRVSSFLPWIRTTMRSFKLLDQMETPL
Put plainly: Compound was tested for inhibitory activity against human Cathepsin G. Conditions: concentration not given here.

Assay [4] concerns the target Chymotrypsinogen A (Bos taurus) (UniProt P00766). Briefly: Compound was tested for inhibitory activity against […] alpha-chymotrypsin. The note with it: concentration not given here.
Assay [5] has as its target T1, Neutrophil elastase. Briefly: Compound was tested for inhibition of human leukocyte Elastase at 64 uM concentration from human polymorphonuclear leukocytes.
Assay [6] addresses T1, Neutrophil elastase. Briefly: Compound was tested for inhibition of human leukocyte Elastase at 16 uM concentration from human polymorphonuclear leukocytes.
Assay [7] deals with T1, Neutrophil elastase. Put plainly: Compound was tested for inhibition of human leukocyte Elastase at 13 uM concentration from human polymorphonuclear leukocytes.
Assay [8] has as its target T1, Neutrophil elastase. Put plainly: Compound was tested for inhibition of human leukocyte Elastase at 23 uM concentration from human polymorphonuclear leukocytes.
For assay [9], the target named is T1, Neutrophil elastase. Briefly: Compound was tested for inhibition of human leukocyte Elastase at 51 uM concentration from human polymorphonuclear leukocytes.
For assay [10], the target named is T1, Neutrophil elastase. Put plainly: Compound was tested for inhibition of human leukocyte Elastase at 32 uM concentration from human polymorphonuclear leukocytes.

With `CCCNc1nc2c3ccccc3nc-2c(O)s1`, at Neutrophil elastase [1], the Ki result is “No inhibition”. As to `CCNc1nc2c3ccccc3nc-2c(O)s1`, the Ki entry at Neutrophil elastase [1] was “No inhibition”. `O=[N+]([O-])c1ccc(Nc2nc3c4ccccc4nc-3c(O)s2)cc1` came in with a Ki on Neutrophil elastase [2] of no less than 45 µM. As for `Oc1sc(Nc2ccccc2)nc2c3ccccc3nc1-2`, the inhibition in [3] came to 11.1%; in assay [4], 13.3%. In addition, the Ki at Neutrophil elastase [5] was determined as 43 µM. In turn, `Oc1sc(Nc2cccc(F)c2)nc2c3ccccc3nc1-2` came in with a Ki on Neutrophil elastase [6] of no less than 72 µM. For `Oc1sc(Nc2ccc(Br)cc2)nc2c3ccccc3nc1-2`, at Neutrophil elastase [7], the Ki is no less than 30 µM. For `CNc1nc2c3ccccc3nc-2c(O)s1`, at Neutrophil elastase [1], the Ki result is recorded as “No inhibition”. Compound `Oc1sc(Nc2cccc(C(F)(F)F)c2)nc2c3ccccc3nc1-2` returned a Ki on Neutrophil elastase [7] of no less than 30 µM. Besides, the inhibition amounted to 5.3% in [3] and 34.2% in assay [4]. Consider `Oc1sc(Nc2ccc(Cl)cc2)nc2c3ccccc3nc1-2`, for which the Ki at Neutrophil elastase [8] was found to be 29 µM. For the compound `Cc1ccc(Nc2nc3c4ccccc4nc-3c(O)s2)cc1`, on Neutrophil elastase [6], the Ki is no less than 78 µM. `Oc1sc(Nc2ccc(F)cc2)nc2c3ccccc3nc1-2` yielded a Ki on Neutrophil elastase [9] of no less than 104 µM. Consider `Oc1sc(Nc2ccccc2F)nc2c3ccccc3nc1-2`, for which the Ki at Neutrophil elastase [10] is no less than 88 µM.
